Measurements as given in paper PMC8326117 (International Journal of Biological Sciences, 2021).
“Also recorded” adds a separate entry of the source. No end group written: not given here.

Legend:
[1] = molecular target: ACE2 (Homo sapiens, UniProt Q9BYF1); details: cited from earlier work
[2] = molecular target: S-protein RBD (Severe acute respiratory syndrome coronavirus 2, UniProt P0DTC2); assay: LSPR assay, binding to S-protein RBD; set-up: species or system SARS-CoV-2; details: pH 7.4
Method: LSPR analysis. Localized Surface Plasmon Resonance (LSPR) analysis was conducted with OpenSPRTM instrument (Nicoyalife, Canada). The COOH sensor chip was firstly installed on the OpenSPRTM instrument in accordance with the standard procedure. Run the buffer at the maximum flow rate (150 μL/min) and exhaust the bubble after reaching the signal baseline. Slow down the flow rate of buffer solution (PBS, pH 7.4) to 20 µL/min, then load 200 µL EDC/NHS (20 μL /min, 4min) solution to activate COOH sensor chips. […] The injection port was rinsed with buffer solution and emptied with air. Fill with 200 µL blocking solution (20 µL/min, 4 min), wash the sample ring with buffer solution and empty it with air. Observe baseline for 5 min to ensure stability. Next, the selected peptides were diluted into a series of solutions with different concentration, which were then injected into the chip with the concentration from low to high. The kinetic parameters of the binding reactions were calculated and analyzed by using TraceDrawer software (Ridgeview Instruments AB, Sweden).

[3] = system: SARS-CoV-2 S-protein; assay type: binding
[4] = system: SARS-CoV-2 Spike-pseudovirus; details: in vivo
[5] = system: SARS-CoV-2 Spike-pseudovirus; details: in vivo; remark: listed apart in the source
[6] = system: SARS-CoV-2 Spike-pseudovirus; details: in vivo; remark: listed apart in the source
[7] = system: HEK293T/hACE2 cells
[8] = mouse, in vivo

Sequence of ACE2 (Q9BYF1 18-805): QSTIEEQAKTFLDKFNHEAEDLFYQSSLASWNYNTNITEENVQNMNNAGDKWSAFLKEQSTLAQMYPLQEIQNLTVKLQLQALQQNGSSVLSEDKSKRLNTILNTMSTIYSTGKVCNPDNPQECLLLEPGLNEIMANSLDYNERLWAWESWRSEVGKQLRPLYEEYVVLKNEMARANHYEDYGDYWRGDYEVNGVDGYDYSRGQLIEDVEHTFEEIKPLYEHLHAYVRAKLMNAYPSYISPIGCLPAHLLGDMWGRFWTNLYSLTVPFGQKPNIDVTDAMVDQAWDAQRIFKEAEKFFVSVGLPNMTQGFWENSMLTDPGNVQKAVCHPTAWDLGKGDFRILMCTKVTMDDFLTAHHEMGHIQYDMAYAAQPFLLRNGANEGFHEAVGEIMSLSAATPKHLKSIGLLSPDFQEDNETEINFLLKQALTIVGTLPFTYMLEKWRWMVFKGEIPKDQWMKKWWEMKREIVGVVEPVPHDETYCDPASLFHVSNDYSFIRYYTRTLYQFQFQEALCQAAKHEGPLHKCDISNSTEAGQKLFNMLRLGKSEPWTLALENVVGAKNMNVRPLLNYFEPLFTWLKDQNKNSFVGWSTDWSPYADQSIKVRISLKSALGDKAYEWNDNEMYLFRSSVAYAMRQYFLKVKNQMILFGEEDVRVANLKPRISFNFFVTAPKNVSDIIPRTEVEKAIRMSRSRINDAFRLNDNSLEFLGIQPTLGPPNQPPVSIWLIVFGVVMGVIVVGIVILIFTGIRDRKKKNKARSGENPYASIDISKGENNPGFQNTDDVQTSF

## Cc1cc(O)c2c(c1)C(=O)c1cc(O)cc(O)c1C2=O [emodin]
[1]
  ACE2 blocking: identified to block ACE2

## COc1ccc2[nH]cc(CCNC(C)=O)c2c1 [melatonin]
[1]
  ACE2 blocking: identified to block ACE2

## S=c1[nH]cnc2nc[nH]c12 [mercaptopurine]
[1]
  ACE2 blocking: identified to block ACE2

## CN(C)CCOc1ccc(/C(=C(/CCCl)c2ccccc2)c2ccccc2)cc1 [toremifene]
[1]
  ACE2 blocking: identified to block ACE2

## KKKKKKDKFNHEAEDLFY [AYn1]
[2]
  koff: 0.001 s⁻¹
  kon: 10500 M⁻¹ s⁻¹
[3]
  protein-peptide interaction in pull-down: no protein signal was detected in negative and blank control lanes
[4]
  pseudovirus infection / luciferin luminance: relatively weaker impact on pseudovirus infection; also recorded: ameliorated; also recorded: failed to prevent pseudovirus infection in vivo
[5]
  pseudovirus content in lungs (119 bp S-protein band): relative weak therapeutic effect
[6]
  luciferase IHC staining in lungs: significantly ameliorated
[7]
  cytotoxicity: no significant cytotoxicity
  cytotoxicity (general statement): no cytotoxicity
[8]
  distribution in livers and kidneys: not in the kidneys and livers
  distribution in lungs and small intestine: preferentially distributed in the lungs and intestine
